In patent US20090239841A1, “Diaryl Ureas as CB1 Antagonists” (priority 2004, published 2009):

Target: T1, hCB1 (Homo sapiens, UniProt P21554)
T1 construct: made in house; host or cells: Sf9 insect cells (baculovirus), P2 membranes
Assay: Agonist-induced GTP binding (GTPγ35S) assay at CB1, Example 8
Assay type: biochemical
Details: IC50 at CB1, determined as described in Example 8; read-out: IC50
Procedure, shortened: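 Antagonism read as inhibition of 1 nM CP55,940-stimulated GTPγ35S ([…]) binding, compounds at 10^−10 to 10^−5 M. Baculovirus-infected Sf9 membranes bearing hCB1 plus G-protein subunits, 60 min room-temperature incubation with 5 μM GDP. Filtration and scintillation counting; data as percent over basal.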

T1 sequence (P21554 whole entry): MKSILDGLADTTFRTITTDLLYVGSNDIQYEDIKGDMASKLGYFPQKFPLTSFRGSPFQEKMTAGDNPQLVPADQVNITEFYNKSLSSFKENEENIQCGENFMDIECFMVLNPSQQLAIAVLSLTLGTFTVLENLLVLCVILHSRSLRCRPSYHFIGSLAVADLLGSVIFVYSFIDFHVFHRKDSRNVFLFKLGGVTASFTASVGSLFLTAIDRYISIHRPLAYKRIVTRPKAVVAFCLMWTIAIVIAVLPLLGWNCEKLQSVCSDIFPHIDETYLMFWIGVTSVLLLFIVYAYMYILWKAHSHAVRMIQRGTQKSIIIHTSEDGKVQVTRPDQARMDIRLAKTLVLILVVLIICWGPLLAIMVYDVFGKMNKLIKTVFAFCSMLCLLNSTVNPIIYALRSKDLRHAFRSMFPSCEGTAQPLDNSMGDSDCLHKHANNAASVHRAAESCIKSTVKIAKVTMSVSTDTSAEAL

IC50 [nM] | SMILES
< 2000 | Cc1ccc(NC(=O)Nc2cccc(C#N)c2)cc1Cl [Compound 457, 1-(3-chloro-4-methylphenyl)-3-(3-cyanophenyl)urea]
< 2000 | CC(=O)c1cccc(NC(=O)Nc2ccc(C)c(Cl)c2)c1 [Compound 458, 1-(3-acetylphenyl)-3-(3-chloro-4-methylphenyl)urea]
< 2000 | Cc1cccc(NC(=O)Nc2ccc(CC#N)cc2)c1 [Compound 459, 1-[4-(cyanomethyl)phenyl]-3-(3-methylphenyl)urea]
< 2000 | Cc1ccc(NC(=O)Nc2ccc(CC#N)cc2)cc1 [Compound 460, 1-[4-(cyanomethyl)phenyl]-3-(4-methylphenyl)urea]
< 2000 | N#CCc1ccc(NC(=O)Nc2cccc(F)c2)cc1 [Compound 461, 1-[4-(cyanomethyl)phenyl]-3-(3-fluorophenyl)urea]
< 2000 | N#CCc1ccc(NC(=O)Nc2ccc(F)cc2)cc1 [Compound 462, 1-[4-(cyanomethyl)phenyl]-3-(4-fluorophenyl)urea]
< 2000 | Cc1ccc(NC(=O)Nc2ccc([N+](=O)[O-])cc2)cc1 [Compound 463, 1-(4-methylphenyl)-3-(4-nitrophenyl)urea]
< 2000 | Cc1cccc(NC(=O)Nc2ccc(OCC#N)cc2)c1 [Compound 464, 1-[4-(cyanomethoxy)phenyl]-3-(3-methylphenyl)urea]
< 2000 | Cc1ccc(NC(=O)Nc2ccc(OCC#N)cc2)cc1 [Compound 465, 1-[4-(cyanomethoxy)phenyl]-3-(4-methylphenyl)urea]
< 2000 | N#CCOc1ccc(NC(=O)Nc2cccc(F)c2)cc1 [Compound 466, 1-[4-(cyanomethoxy)phenyl]-3-(3-fluorophenyl)urea]
< 2000 | N#CCOc1ccc(NC(=O)Nc2ccc(F)cc2)cc1 [Compound 467, 1-[4-(cyanomethoxy)phenyl]-3-(4-fluorophenyl)urea]
< 2000 | CCC(=O)c1ccc(NC(=O)Nc2cccc(C)c2)cc1 [Compound 468, 1-(3-methylphenyl)-3-(4-propionylphenyl)urea]
< 2000 | CCC(=O)c1ccc(NC(=O)Nc2ccc(C)cc2)cc1 [Compound 469, 1-(4-methylphenyl)-3-(4-propionylphenyl)urea]
< 2000 | COC(=O)c1ccc(NC(=O)Nc2ccc(C)cc2)cc1 [Compound 470, methyl 4-({[(4-methylphenyl)amino]carbonyl}amino)benzoate]
< 2000 | COC(=O)c1ccc(NC(=O)Nc2cccc(F)c2)cc1 [Compound 471, methyl 4-({[(3-fluorophenyl)amino]carbonyl}amino)benzoate]
< 2000 | COC(=O)c1ccc(NC(=O)Nc2ccc(F)cc2)cc1 [Compound 472, methyl 4-({[(4-fluorophenyl)amino]carbonyl)amino)benzoate]
< 2000 | CCOC(=O)c1ccc(NC(=O)Nc2cccc(C)c2)cc1 [Compound 473, ethyl 4-({[(3-methylphenyl)amino]carbonyl}amino)benzoate]
< 2000 | CCOC(=O)c1ccc(NC(=O)Nc2ccc(C)cc2)cc1 [Compound 474, ethyl 4-({[(4-methylphenyl)amino]carbonyl}amino)benzoate]
< 2000 | CCOC(=O)c1ccc(NC(=O)Nc2cccc(F)c2)cc1 [Compound 475, ethyl 4-({[(3-fluorophenyl)amino]carbonyl}amino)benzoate]
< 2000 | CCOC(=O)c1ccc(NC(=O)Nc2ccc(F)cc2)cc1 [Compound 476, ethyl 4-({[(4-fluorophenyl)amino]carbonyl}amino)benzoate]
< 2000 | Cc1cccc(NC(=O)Nc2ccc(C(=O)OC(C)C)cc2)c1 [Compound 477, isopropyl 4-({[(3-methylphenyl)amino]carbonyl}amino)benzoate]
< 2000 | Cc1ccc(NC(=O)Nc2ccc(C(=O)OC(C)C)cc2)cc1 [Compound 478, isopropyl 4-({[(4-methylphenyl)amino]carbonyl}amino)benzoate]
< 2000 | CC(C)OC(=O)c1ccc(NC(=O)Nc2cccc(F)c2)cc1 [Compound 479, isopropyl 4-({[(3-fluorophenyl)amino]carbonyl}amino)benzoate]
< 2000 | CC(C)OC(=O)c1ccc(NC(=O)Nc2ccc(F)cc2)cc1 [Compound 480, isopropyl 4-({[(4-fluorophenyl)amino]carbonyl}amino)benzoate]
< 2000 | COC(=O)c1ccc(NC(=O)Nc2ccccc2)cc1 [Compound 481, methyl 4-[(anilinocarbonyl)amino] benzoate]
< 2000 | CCc1cccc(NC(=O)Nc2ccc(CC#N)cc2)c1 [Compound 482, 1-[4-(cyanomethyl)phenyl]-3-(3-ethylphenyl)urea]
< 2000 | CCc1ccc(NC(=O)Nc2ccc(CC#N)cc2)cc1 [Compound 483, 1-[4-(cyanomethyl)phenyl]-3-(4-ethylphenyl)urea]
< 2000 | N#CCc1ccc(NC(=O)Nc2cccc(Cl)c2)cc1 [Compound 484, 1-(3-chlorophenyl)-3-[4-(cyanomethyl)phenyl]urea]

IC50 [nM] | SMILES
< 2000 | N#CCc1ccc(NC(=O)Nc2ccc(Cl)cc2)cc1 [Compound 485, 1-(4-chlorophenyl)-3-[4-(cyanomethyl)phenyl]urea]
< 2000 | CCc1ccc(NC(=O)Nc2ccc([N+](=O)[O-])cc2)cc1 [Compound 487, 1-(4-ethylphenyl)-3-(4-nitrophenyl)urea]
< 2000 | CCc1cccc(NC(=O)Nc2ccc(OCC#N)cc2)c1 [Compound 488, 1-[4-(cyanomethoxy)phenyl]-3-(3-ethylphenyl)urea]
< 2000 | CCc1ccc(NC(=O)Nc2ccc(OCC#N)cc2)cc1 [Compound 489, N-[4-(cyanomethoxy)phenyl]-N′-(4-ethylphenyl)urea]
< 2000 | N#CCOc1ccc(NC(=O)Nc2cccc(Cl)c2)cc1 [Compound 490, 1-(3-chlorophenyl)-3-[4-(cyanomethoxy)phenyl]urea]
< 2000 | CCC(=O)c1ccc(NC(=O)Nc2cccc(CC)c2)cc1 [Compound 491, 1-(3-ethylphenyl)-3-(4-propionylphenyl)urea]
< 2000 | CCC(=O)c1ccc(NC(=O)Nc2ccc(CC)cc2)cc1 [Compound 492, 1-(4-ethylphenyl)-3-(4-propionylphenyl)urea]
< 2000 | CCC(=O)c1ccc(NC(=O)Nc2cccc(Cl)c2)cc1 [Compound 493, 1-(3-chlorophenyl)-3-(4-propionylphenyl)urea]
< 2000 | CCc1cccc(NC(=O)Nc2ccc(C(=O)OC)cc2)c1 [Compound 494, methyl 4-({[(3-ethylphenyl)amino]carbonyl}amino)benzoate]
< 2000 | CCc1ccc(NC(=O)Nc2ccc(C(=O)OC)cc2)cc1 [Compound 495, methyl 4-({[(4-ethylphenyl)amino]carbonyl}amino)benzoate]
< 2000 | COC(=O)c1ccc(NC(=O)Nc2ccc(Cl)cc2)cc1 [Compound 496, methyl 4-({[(4-chlorophenyl)amino]carbonyl}amino)benzoate]
< 2000 | CCOC(=O)c1ccc(NC(=O)Nc2cccc(CC)c2)cc1 [Compound 497, ethyl 4-({[(3-ethylphenyl)amino]carbonyl}amino)benzoate]
< 2000 | CCOC(=O)c1ccc(NC(=O)Nc2ccc(CC)cc2)cc1 [Compound 498, ethyl 4-({[(4-ethylphenyl)amino]carbonyl}amino)benzoate]
< 2000 | CCOC(=O)c1ccc(NC(=O)Nc2cccc(Cl)c2)cc1 [Compound 499, ethyl 4-({[(3-chlorophenyl)amino]carbonyl}amino)benzoate]
< 2000 | CCOC(=O)c1ccc(NC(=O)Nc2ccc(Cl)cc2)cc1 [Compound 500, ethyl 4-({[(4-chlorophenyl)amino]carbonyl}amino)benzoate]
< 2000 | CCc1ccc(NC(=O)Nc2ccc(S(C)(=O)=O)cc2)cc1 [Compound 501, 1-(4-ethylphenyl)-3-[4-(methylsulfonyl)phenyl]urea]
< 2000 | CCc1ccc(NC(=O)Nc2ccc(C(=O)OC(C)C)cc2)cc1 [Compound 502, isopropyl 4-({[(4-ethylphenyl)amino]carbonyl}amino)benzoate]
< 2000 | N#CCc1ccc(NC(=O)Nc2cccc(C#N)c2)cc1 [Compound 503, 1-[4-(cyanomethyl)phenyl]-3-(3-cyanophenyl)urea]
< 2000 | CC(=O)c1cccc(NC(=O)Nc2ccc(CC#N)cc2)c1 [Compound 504, 1-(3-acetylphenyl)-3-[4-(cyanomethyl)phenyl]urea]
< 2000 | CC(=O)c1ccc(NC(=O)Nc2ccc(CC#N)cc2)cc1 [Compound 505, 1-(4-acetylphenyl)-3-[4-(cyanomethyl)phenyl]urea]
< 2000 | N#CCOc1ccc(NC(=O)Nc2ccc(C#N)cc2)cc1 [Compound 506, 1-[4-(cyanomethoxy)phenyl]-3-(4-cyanophenyl)urea]
< 2000 | N#CCOc1ccc(NC(=O)Nc2cccc(C#N)c2)cc1 [Compound 507, 1-[4-(cyanomethoxy)phenyl]-3-(3-cyanophenyl)urea]
< 2000 | CC(=O)c1ccc(NC(=O)Nc2ccc(OCC#N)cc2)cc1 [Compound 508, 1-(4-acetylphenyl)-3-[4-(cyanomethoxy)phenyl]urea]
< 2000 | CCC(=O)c1ccc(NC(=O)Nc2cccc(C#N)c2)cc1 [Compound 509, 1-(3-cyanophenyl)-3-(4-propionylphenyl)urea]
< 2000 | COC(=O)c1ccc(NC(=O)Nc2ccc(C(C)=O)cc2)cc1 [Compound 510, methyl 4-({[(4-acetylphenyl)amino]carbonyl}amino)benzoate]
< 2000 | CCOC(=O)c1ccc(NC(=O)Nc2cccc(C#N)c2)cc1 [Compound 511, ethyl 4-({[(3-cyanophenyl)amino]carbonyl}amino)benzoate]
< 2000 | CCOC(=O)c1ccc(NC(=O)Nc2cccc(C(C)=O)c2)cc1 [Compound 512, ethyl 4-({[(3-acetylphenyl)amino]carbonyl}amino)benzoate]
